Laboratory results taken from patent publication US8415367B2, “Pyrimidinylpiperidinyloxypyridinone analogues as GPR119 modulators” (Bristol-Myers Squibb Company, priority 2010, dated 2013).
Read-outs that look alike come from different tables or passages of the source.

Experiments:
male C57BL/6J mice = assay: Mouse oral glucose tolerance test; type: in vivo; conditions: for Minimally efficacious Dose / Glucose Lowering: oral; for Minimally efficacious Dose: given 60 min before glucose load (2 g/kg), oGTT in C57BL/6J mice; for Glucose Lowering: plasma glucose AUC change vs vehicle at the minimally efficacious dose
Procedure: Mouse Oral Glucose Tolerance Test
Twenty four (24) male C57BL/6J mice (8-10 weeks old, average weight 28 g) were randomized into 4 groups (1 mouse/cage) of 6 mice per group based on fed plasma glucose and body weight. Prior to initiating the study, mice were fasted overnight and the next morning they were weighed and placed in the experimental lab. After 30 min in the environment, the mice were bled via tail tip at −60 min and immediately given their first oral administration of vehicle (40% PEG400, 10% Cremophor EL, 50% water) or compound solutions (5 ml/kg). At time 0 the mice were bled and given 50% glucose (2 g/kg) to initiate the oral glucose tolerance test (oGTT). The mice were bled 30, 60 and 120 min after the glucose load. Blood samples were drawn into potassium EDTA, placed on ice during the study and subsequently centrifuged for 10 min at 3000 rpm at 4° C. Plasma samples were diluted 11-fold for glucose analysis in the COBAS MIRA® System (Roche Diagnostics). Area under the curve was calculated from the plasma glucose time course data using the trapezoid rule with fasting plasma glucose as the baseline (GraphPad Prism Software). The statistical significance of the changes in the glucose AUCs resulting from the different treatments was determined by one-way ANOVA followed by Dunnett's test using the vehicle group as the control (JMP software, release 5.1.2).
Find below in Table 6 data for compared compounds (See WO 2009/012275 A1).

in vitro = conditions: human, microsomes, pH 7.4
Procedure: (§1) Metabolic Stability in Liver Microsomes Test
(§2) Human liver microsomes were purchased from BD-Biosciences (Woburn, Mass.). The test compound was received as a 3.5 mM stock solution in 100 percent dimethyl sulfoxide (“DMSO”, Sigma Aldritch). […] The test compound, β-nicotinamide adenine dinucleotide phosphate (“NADPH”, AppliChem Inc.) and liver microsome solutions are combined for incubation in three steps:
(§3) 1) 450 μl of liver microsome suspension, protein concentration of 1.1 mg/ml in 100 mM sodium (+)/phosphate (“NaPi”, pH 7.4, Sigma Aldritch) buffer, 5 mM magnesium chloride (“MgCl2, Sigma Aldritch) buffer, is pre-warmed at 37° C.;
(§4) 3) The reaction is initiated by the addition of 50 μl of pre-warmed 10 mM NADPH solution in 100 mM NaPi, pH 7.4.
(§5) Reaction components are mixed well and then 65 μl are immediately transferred into 130 μl of quench/stop solution (zero-time point, T0). […] ACN containing Internal Standard (100 ng/ml), is used as the quench solution to terminate metabolic reactions. The quenched mixtures are centrifuged at 1500 rpm (˜500×g) in an Allegra X-12 centrifuge, SX4750 rotor (Beckman Coulter Inc., Fullerton, Calif.) for fifteen minutes to pellet denatured microsomes. A volume of 90 μl of supernatant extract, containing the mixture of parent compound and its metabolites, is then transferred to a separate 96-well plate for LC/MS-MS analysis to determine the percent of parent compound that is remaining in the mixture. Peak integration is performed on all samples using the Hepatic Clearance Calculator of QuickCalc by Gubbs, Inc. The percent remaining calculation is performed by comparing the LC-MS/MS peak areas from the samples at each time point to those from the T0 samples for each compound.

[1] = biological target: T1, human-mouse chimeric GPR119 (Homo sapiens, UniProt Q8TDV5, A235T/C313R/C323Y/E253K/F304I/F307L/G211A/G245S/H255C/K284R/L224V/L258Q/L288Q/L301F/P218V/P318T/Q252H/R262K/S214P/S219N/S228A/S309P/S322A/T217S/T239S/V227I/V300F); assay: Tet-inducible cAMP assay (cAMP accumulation, HTRF); type: cell-based
T1 construct: the first 198 amino acids of human GPR119; the C-terminal 137 amino acids of the mouse receptor; expressed in transfected cells
T1 sequence (Q8TDV5 with tags, fused parts or gaps G211A/S214P/T217S/P218V/S219N/L224V/V227I/S228A/A235T/T239S/G245S/Q252H/E253K/H255C/L258Q/R262K/K284R/L288Q/V300F/L301F/F304I/F307L/S309P/C313R/P318T/S322A/C323Y): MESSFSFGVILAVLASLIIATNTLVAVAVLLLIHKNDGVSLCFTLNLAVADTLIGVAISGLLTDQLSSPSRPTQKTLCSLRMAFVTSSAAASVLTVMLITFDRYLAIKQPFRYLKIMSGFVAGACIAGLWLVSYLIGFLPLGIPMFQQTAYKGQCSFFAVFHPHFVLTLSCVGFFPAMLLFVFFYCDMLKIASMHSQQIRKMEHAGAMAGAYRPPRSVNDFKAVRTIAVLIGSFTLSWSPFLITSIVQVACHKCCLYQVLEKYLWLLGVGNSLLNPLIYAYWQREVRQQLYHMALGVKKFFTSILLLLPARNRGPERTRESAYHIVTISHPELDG
Procedure: The in vitro modulation of recombinant human GPR119 was determined as follows.
A human-mouse chimeric GPR119 expression construct encoding 3 copies of the FLAG epitope tag, the first 198 amino acids of human GPR119 and the C-terminal 137 amino acids of the mouse receptor was cloned into a tetracycline inducible vector pcDNA5/FRT/TO (Invitrogen #V6520-20), which includes a hygromycin-resistance marker. Tightly controlled receptor expression was achieved by stable integration of this construct into the genome of a specific host cell line, Flp-In-T-Rex-HEK293, expressing the tetracycline repressor (Invitrogen). Once a stable hygromycin-resistant cell line was generated, the cells were maintained at 37° C. in a humidified 5% CO2 atmosphere in culture medium consisting of Dulbecco's modified Eagle's medium (DMEM; Invitrogen #11960) supplemented with 2 mM L-glutamine, 10% fetal bovine serum, 200 μg/ml hygromycin B, and 15 μg/ml blasticidin.
Forty-eight hours prior to the cAMP accumulation assay, cells stably expressing the chimeric human/mouse GPR119 construct were seeded at a density of 4×10^3 cells/well in 384 well poly-D-lysine coated solid white plates (BD #35-6661) and grown at 37° C. in a humidified 5% CO2 atmosphere in culture medium supplemented with 1 μg/ml tetracycline to induce expression of the receptor. On the day of the assay, medium was removed and cells were incubated for 50 min. at 37° C. in a humidified 5% CO2 atmosphere in 20 μl/well of assay buffer (phosphate-buffered saline with Ca^2+ and Mg^2+, 12 mM glucose, 0.1 mM isobutyl-methyl-xanthine, 0.1% fatty-acid free bovine serum albumin) with the desired concentration of compound added from a concentrated stock dissolved in dimethyl sulfoxide (DMSO) to give a final concentration of 1% DMSO in the assay. cAMP accumulation was measured using the CisBio homogeneous time resolved fluorescence (HTRF) assay kit (#62AM2PEC) following the manufacturer's protocol. Briefly, 10 μl each of the cAMP-HTRF fluorescence detection reagents were added to each well, and the samples were incubated for 40 min. at room temperature. Fluorescence was excited at 320 nm and measured at 665 and 620 nm using the Envision instrument (Perkin Elmer), the fluorescence ratio of 665/620 was calculated and converted to nanomolar concentrations of cAMP in each well by interpolation from a cAMP standard curve. The concentration-response curves and EC50 values were calculated with a four parameter logistic curve fit equation utilizing Excel/XLfit software (Microsoft and IDBS). The EC50 value was calculated as the concentration of agonist which increased the cAMP concentration to a value halfway between the baseline and the maximum.
Compounds of the present invention were tested in the Tet-inducible cAMP assay described immediately above and the results shown in Table 5 below were obtained.

[2] = Metabolic stability in liver microsomes test; conditions: human, pH 7.4
Procedure: as §1, §2, §3, §4, §5

[3] = Flp-In-T-Rex-HEK293 cells expressing chimeric human/mouse GPR119, cAMP accumulation, read-out: GPR119 EC50

Compound | reduction in glucose (male C57BL/6J mice; at the stated dose (0.1 mg/kg Example 1; 0.3 mg/kg Example 224 of WO 2009/012275 A1)) | Minimally efficacious Dose (male C57BL/6J mice) | Glucose Lowering (male C57BL/6J mice) | half-life at 0.5 µM (in vitro) | EC50 [1] | half-life at 0.5 µM [2] | EC50 [1, 3]
CS(=O)(=O)c1ccc(-n2cc(Cl)c(OC3CCN(c4ncc(C(F)(F)F)cn4)CC3)cc2=O)cc1 [Example 1, 5-Chloro-1-(4-(methylsulfonyl)phenyl)-4-(1-(5-(trifluoromethyl)pyrimidin-2-yl)piperidin-4-yloxy)pyridin-2(1H)-one] | 24% | 0.1 mg/kg | −24% | 3 h | 8 nM |  | 
CS(=O)(=O)c1ccc(-n2cc(Cl)c(OC3CCN(c4ncc(C(F)(F)F)cn4)CC3)cc2=O)c(F)c1 [Example 2, 5-Chloro-1-(2-fluoro-4-(methylsulfonyl)phenyl)-4-(1-(5-(trifluoromethyl)pyrimidin-2-yl)piperidin-4-yloxy)pyridin-2 (1H)-one] |  | 0.1 mg/kg | −29% | 2.45 h | 12 nM |  | 
CS(=O)(=O)c1ccc(-n2cc(Cl)c(OC3CCN(c4ncc(C(F)(F)F)cn4)CC3)cc2=O)cc1F [Example 3, 5-Chloro-1-(3-fluoro-4-(methylsulfonyl)phenyl)-4-(1-(5-(trifluoromethyl)pyrimidin-2-yl)piperidin-4-yloxy)pyridin-2(1H)-one] |  | 0.1 mg/kg | −28% | 1.8 h | 7 nM |  | 
CS(=O)(=O)c1ccc(-n2cc(Cl)c(OC3CCN(c4ncc(Cl)cn4)CC3)cc2=O)cc1 [Example 4, 5-Chloro-4-(1-(5-chloropyrimidin-2-yl)piperidin-4-yloxy)-1-(4-(methylsulfonyl)phenyl)pyridin-2(1H)-one] |  | 0.03 mg/kg | −24% |  | 5 nM | 0.95 h | 
CS(=O)(=O)c1ccc(-n2cc(Cl)c(OC3CCN(c4ncc(Cl)cn4)CC3)cc2=O)c(F)c1 [Example 5, 5-Chloro-4-(1-(5-chloropyrimidin-2-yl)piperidin-4-yloxy)-1-(2-fluoro-4-(methylsulfonyl)phenyl)pyridin-2(1H)-one] |  | 0.06 mg/kg | −29% | 1.75 h | 3 nM |  | 
CS(=O)(=O)c1ccc(-n2cc(Cl)c(OC3CCN(c4ncc(Cl)cn4)CC3)cc2=O)cc1F [Example 6, 5-Chloro-4-(1-(5-chloropyrimidin-2-yl)piperidin-4-yloxy)-1-(3-fluoro-4-(methylsulfonyl)phenyl)pyridin-2(1H)-one] |  | 0.1 mg/kg | −36% |  | 4 nM | 0.65 h | 
CCS(=O)(=O)c1ccc(-n2cc(Cl)c(OC3CCN(c4ncc(C(F)(F)F)cn4)CC3)cc2=O)c(F)c1 [Example 8, 5-Chloro-1-(4-(ethylsulfonyl)-2-fluorophenyl)-4-(1-(5-(trifluoromethyl)pyrimidin-2-yl)piperidin-4-yloxy)pyridin-2(1H)-one] |  | 0.03 mg/kg | −26% | 2 h |  |  | 8 nM
CCS(=O)(=O)c1ccc(-n2cc(Cl)c(OC3CCN(c4ncc(C(F)(F)F)cn4)CC3)cc2=O)cc1F [Example 9, 5-Chloro-1-(4-(ethylsulfonyl)-3-fluorophenyl)-4-(1-(5-(trifluoromethyl)pyrimidin-2-yl)piperidin-4-yloxy)pyridin-2(1H)-one] |  |  |  | 1.47 h |  |  | 13 nM
CCS(=O)(=O)c1ccc(-n2cc(Cl)c(OC3CCN(c4ncc(Cl)cn4)CC3)cc2=O)cc1 [Example 10, 5-Chloro-4-(1-(5-chloropyrimidin-2-yl)piperidin-4-yloxy)-1-(4-(ethylsulfonyl)phenyl)pyridin-2(1H)-one] |  |  |  | 0.583 h |  |  | 2 nM
CCS(=O)(=O)c1ccc(-n2cc(Cl)c(OC3CCN(c4ncc(Cl)cn4)CC3)cc2=O)c(F)c1 [Example 11, 5-Chloro-4-(1-(5-chloropyrimidin-2-yl)piperidin-4-yloxy)-1-(4-(ethylsulfonyl)-2-fluorophenyl)pyridin-2(1H)-one] |  |  |  | 0.85 h |  |  | 6 nM
